From ChEMBL document CHEMBL4808193, “[11]-Chaetoglobosins from Pseudeurotium bakeri Induce G2/M Cell Cycle Arrest and Apoptosis in Human Cancer Cells” (J Nat Prod, 2021)
The source made the active and inactive calls. The calls are words filed in the database; no cut-off is given here.

How the values were obtained:
A549 = experiment: Cytotoxicity against human A549 cells assessed as reduction in cell viability by MTT assay; assay type: functional, cell-based
A-427 [1] = experiment: Cytotoxicity against human A-427 cells assessed as reduction in cell viability by MTT assay; assay type: functional, cell-based
HCT-116 = experiment: Cytotoxicity against human HCT-116 cells assessed as reduction in cell viability by MTT assay; assay type: functional, cell-based
HT-29 = experiment: Cytotoxicity against human HT-29 cells assessed as reduction in cell viability by MTT assay; assay type: functional, cell-based
MCF7 [2] = experiment: Cytotoxicity against human MCF7 cells assessed as reduction in cell viability by MTT assay; assay type: functional, cell-based
HeLa = experiment: Cytotoxicity against human HeLa cells assessed as reduction in cell viability by MTT assay; assay type: functional, cell-based
HepG2 = experiment: Cytotoxicity against human HepG2 cells assessed as reduction in cell viability by MTT assay; assay type: functional, cell-based
L02 = experiment: Cytotoxicity against human L02 cells assessed as reduction in cell viability by MTT assay; assay type: cell-based
MCF7 [3] = experiment: Cell cycle arrest in human MCF7 cells assessed as accumulation at S phase at 5 uM measured after 24 hrs by PI staining based flow cytometry (reference value: 24.64%); assay type: functional
MCF7 [4] = experiment: Cell cycle arrest in human MCF7 cells assessed as accumulation at G0/G1 phase at 5 uM measured after 24 hrs by PI staining based flow cytometry (reference value: 60.23%); assay type: functional
MCF7 [5] = experiment: Induction of apoptosis in human MCF7 cells assessed as increase in Bax protein level at 5 to 10 uM incubated for 24 hrs by Western blot analysis; assay type: functional, cell-based; details: dose 5-10 µM
MCF7 [6] = experiment: Induction of apoptosis in human MCF7 cells assessed as increase in cytochrome c level at 5 to 10 uM incubated for 24 hrs by Western blot analysis; assay type: functional, cell-based; details: dose 5-10 µM
MCF7 [7] = experiment: Induction of apoptosis in human MCF7 cells assessed as increase in cleaved caspase 3 level at 5 to 10 uM incubated for 24 hrs by Western blot analysis; assay type: functional, cell-based; details: dose 5-10 µM
MCF7 [8] = experiment: Induction of apoptosis in human MCF7 cells assessed as increase in PARP level at 5 to 10 uM incubated for 24 hrs by Western blot analysis; assay type: functional, cell-based; details: dose 5-10 µM
MCF7 [9] = experiment: Induction of apoptosis in human MCF7 cells assessed as increase in cleaved PARP level at 5 to 10 uM incubated for 24 hrs by Western blot analysis; assay type: functional, cell-based; details: dose 5-10 µM
A-427 [10] = experiment: Induction of apoptosis in human A-427 cells assessed as late apoptotic cells at 5 uM measured after 24 hrs by Annexin V-FITC/propidium iodide staining based flow cytometric analysis (reference value: 3.18%); assay type: functional
A-427 [11] = experiment: Induction of apoptosis in human A-427 cells assessed as late apoptotic cells at 3.75 uM measured after 24 hrs by Annexin V-FITC/propidium iodide staining based flow cytometric analysis (reference value: 3.18%); assay type: functional
A-427 [12] = experiment: Induction of apoptosis in human A-427 cells assessed as late apoptotic cells at 2.5 uM measured after 24 hrs by Annexin V-FITC/propidium iodide staining based flow cytometric analysis (reference value: 3.18%); assay type: functional
A-427 [13] = experiment: Induction of apoptosis in human A-427 cells assessed as early apoptotic cells at 5 uM measured after 24 hrs by Annexin V-FITC/propidium iodide staining based flow cytometric analysis (reference value: 4.98%); assay type: functional
A-427 [14] = experiment: Induction of apoptosis in human A-427 cells assessed as early apoptotic cells at 3.75 uM measured after 24 hrs by Annexin V-FITC/propidium iodide staining based flow cytometric analysis (reference value: 4.98%); assay type: functional
A-427 [15] = experiment: Induction of apoptosis in human A-427 cells assessed as early apoptotic cells at 2.5 uM measured after 24 hrs by Annexin V-FITC/propidium iodide staining based flow cytometric analysis (reference value: 4.98%); assay type: functional
MCF7 [16] = experiment: Induction of apoptosis in human MCF7 cells assessed as late apoptotic cells at 10 uM measured after 24 hrs by Annexin V-FITC/propidium iodide staining based flow cytometric analysis (reference value: 1.11%); assay type: functional
MCF7 [17] = experiment: Induction of apoptosis in human MCF7 cells assessed as late apoptotic cells at 7.5 uM measured after 24 hrs by Annexin V-FITC/propidium iodide staining based flow cytometric analysis (reference value: 1.11%); assay type: functional
MCF7 [18] = experiment: Induction of apoptosis in human MCF7 cells assessed as late apoptotic cells at 5 uM measured after 24 hrs by Annexin V-FITC/propidium iodide staining based flow cytometric analysis (reference value: 1.11%); assay type: functional
MCF7 [19] = experiment: Induction of apoptosis in human MCF7 cells assessed as early apoptotic cells at 10 uM measured after 24 hrs by Annexin V-FITC/propidium iodide staining based flow cytometric analysis (reference value: 4.82%); assay type: functional
MCF7 [20] = experiment: Induction of apoptosis in human MCF7 cells assessed as early apoptotic cells at 7.5 uM measured after 24 hrs by Annexin V-FITC/propidium iodide staining based flow cytometric analysis (reference value: 4.82%); assay type: functional
MCF7 [21] = experiment: Induction of apoptosis in human MCF7 cells assessed as early apoptotic cells at 5 uM measured after 24 hrs by Annexin V-FITC/propidium iodide staining based flow cytometric analysis (reference value: 4.82%); assay type: functional
A-427 [22] = experiment: Cell cycle arrest in human A-427 cells assessed as accumulation at G2/M phase at 5 uM measured after 24 hrs by PI staining based flow cytometry (reference value: 19.81%); assay type: functional
A-427 [23] = experiment: Cell cycle arrest in human A-427 cells assessed as accumulation at S phase at 5 uM measured after 24 hrs by PI staining based flow cytometry (reference value: 27.27%); assay type: functional
A-427 [24] = experiment: Cell cycle arrest in human A-427 cells assessed as accumulation at G0/G1 phase at 5 uM measured after 24 hrs by PI staining based flow cytometry (reference value: 52.93%); assay type: functional
A-427 [25] = experiment: Cell cycle arrest in human A-427 cells assessed as accumulation at G2/M phase at 3.75 uM measured after 24 hrs by PI staining based flow cytometry (reference value: 19.81%); assay type: functional
A-427 [26] = experiment: Cell cycle arrest in human A-427 cells assessed as accumulation at S phase at 3.75 uM measured after 24 hrs by PI staining based flow cytometry (reference value: 27.27%); assay type: functional
A-427 [27] = experiment: Cell cycle arrest in human A-427 cells assessed as accumulation at G0/G1 phase at 3.75 uM measured after 24 hrs by PI staining based flow cytometry (reference value: 52.93%); assay type: functional
A-427 [28] = experiment: Cell cycle arrest in human A-427 cells assessed as accumulation at G2/M phase at 2.5 uM measured after 24 hrs by PI staining based flow cytometry (reference value: 19.81%); assay type: functional
A-427 [29] = experiment: Cell cycle arrest in human A-427 cells assessed as accumulation at S phase at 2.5 uM measured after 24 hrs by PI staining based flow cytometry (reference value: 27.27%); assay type: functional
A-427 [30] = experiment: Cell cycle arrest in human A-427 cells assessed as accumulation at G0/G1 phase at 2.5 uM measured after 24 hrs by PI staining based flow cytometry (reference value: 52.93%); assay type: functional
MCF7 [31] = experiment: Cell cycle arrest in human MCF7 cells assessed as accumulation at G2/M phase at 10 uM measured after 24 hrs by PI staining based flow cytometry (reference value: 15.13%); assay type: functional
MCF7 [32] = experiment: Cell cycle arrest in human MCF7 cells assessed as accumulation at S phase at 10 uM measured after 24 hrs by PI staining based flow cytometry (reference value: 24.64%); assay type: functional
MCF7 [33] = experiment: Cell cycle arrest in human MCF7 cells assessed as accumulation at G0/G1 phase at 10 uM measured after 24 hrs by PI staining based flow cytometry (reference value: 60.23%); assay type: functional
MCF7 [34] = experiment: Cell cycle arrest in human MCF7 cells assessed as accumulation at G2/M phase at 7.5 uM measured after 24 hrs by PI staining based flow cytometry (reference value: 15.13%); assay type: functional
MCF7 [35] = experiment: Cell cycle arrest in human MCF7 cells assessed as accumulation at S phase at 7.5 uM measured after 24 hrs by PI staining based flow cytometry (reference value: 24.64%; assay type: functional
MCF7 [36] = experiment: Cell cycle arrest in human MCF7 cells assessed as accumulation at G0/G1 phase at 7.5 uM measured after 24 hrs by PI staining based flow cytometry (reference value: 60.23%); assay type: functional
MCF7 [37] = experiment: Cell cycle arrest in human MCF7 cells assessed as accumulation at G2/M phase at 5 uM measured after 24 hrs by PI staining based flow cytometry (reference value: 15.13%); assay type: functional

`CC1=C[C@@H]2/C=C/C[C@H](C)CC/C=C\C(=O)[C@]23C(=O)N[C@@H](Cc2c[nH]c4ccccc24)[C@@H]3[C@@H]1C` was tested, and the IC50 (A549) was 8.2 µM, the IC50 (A-427 [1]) was 4.7 µM and the IC50 (HCT-116) was 8 µM. The IC50 (HT-29) was 6.7 µM, the IC50 (MCF7 [2]) was 6.2 µM and the IC50 (HeLa) was 7.1 µM. It also gave an IC50 (HepG2) of 9.1 µM, an IC50 (L02) of 44.1 µM and an Activity (MCF7 [3]) of 13.15%. The Activity (MCF7 [4]) was 44.64%, the Activity (MCF7 [5]) was “Active” and the Activity (MCF7 [6]) was “Active”. For the same molecule, the Activity (MCF7 [7]) was “Active”, the Activity (MCF7 [8]) was “Active” and the Activity (MCF7 [9]) was “Active”. The Activity (A-427 [10]) was 22.56%, the Activity (A-427 [11]) was 24.36% and the Activity (A-427 [12]) was 3.07%. The Activity (A-427 [13]) was 20.14%, the Activity (A-427 [14]) was 15.57% and the Activity (A-427 [15]) was 11.53%. It also gave an Activity (MCF7 [16]) of 7.12%, an Activity (MCF7 [17]) of 6.76% and an Activity (MCF7 [18]) of 4.68%. The Activity (MCF7 [19]) was 25.44%, the Activity (MCF7 [20]) was 19.53% and the Activity (MCF7 [21]) was 11.86%. It also gave an Activity (A-427 [22]) of 71.12%, an Activity (A-427 [23]) of 17.84% and an Activity (A-427 [24]) of 11.04%. For the same molecule, the Activity (A-427 [25]) was 67.84%, the Activity (A-427 [26]) was 19.02% and the Activity (A-427 [27]) was 13.13%. The Activity (A-427 [28]) was 62.86%, the Activity (A-427 [29]) was 21.83% and the Activity (A-427 [30]) was 15.31%. The Activity (MCF7 [31]) was 59.55%, the Activity (MCF7 [32]) was 12.37% and the Activity (MCF7 [33]) was 28.08%. For the same molecule, the Activity (MCF7 [34]) was 48.75%, the Activity (MCF7 [35]) was 18.43% and the Activity (MCF7 [36]) was 32.82%. It also gave an Activity (MCF7 [37]) of 42.22%.
